Strand notation (5' to 3'): a small letter for the sugar, then the base; units joined by * are phosphorothioate-linked, units joined directly phosphodiester-linked; [ ] holds rarer units or linkages, { } end groups; capitals alone tell only the bases. {m7G-cap} = 7-methylguanosine cap added chemically (m7GDP-imidazolide) to the 5'-phosphate; e = 2'-O-(2-methoxyethyl) (MOE); [I] = hypoxanthine (inosine); d = 2'-deoxy (DNA); m = 2'-O-methyl; r = 2'-OH (RNA); {P} = phosphate; f = 2'-fluoro
Tested on: HeLa cells
Test: Time-course dual luciferase assay of modified Firefly luciferase mRNA (Renilla control)
Assay type: cell-based
Conditions: HeLa cells; 8-, 24-, 48-hours post-transfection; benchmark m7G-rG
Method: The modularity of this workflow enabled divergent construction and evaluation of mRNAs featuring four different types of cap and 5′ UTR modifications (FIG. 8A): (1) base identities within the 5′ UTR, including as locations beyond the third base (+3 position), (2) phosphodiester linkages within the 5′ UTR, (3) sugar backbone modifications within the 5′ UTR, and (4) cap modifications. The effects of all of these different types of modifications on protein translation were assayed using Firefly luciferase reporter at 8-, 24-, and 48-hours post-transfection.
HeLa cells [ATCC, CCL-2] were maintained in DMEM culture media [ThermoFisher Scientific, 119951] containing 10% FBS and 1% penicillin-streptomycin [ThermoFisher Scientific, 15070063] in a 37° C. incubator with 5% CO2 and passaged at a ratio of 1:10 every 3 days. On the day before mRNA transfection, HeLa cells were seeded at 90% confluence in individual wells on 24-well plates. The following day, 50 ng of Renilla luciferase (internal control) mRNA and 50 ng of modified Firefly luciferase mRNA were transfected using Lipofectamine MessengerMAX Transfection Reagent [ThermoFisher Scientific, LMRNA003] per manufacturer's protocols. Additional controls that contain only Renilla luciferase mRNA or lipofection reagent only were included. Three individual transfections were conducted for each condition. 6 hours after transfection, the transfection media was removed, and cells were trypsinized and reseeded to three white clear-bottom 96-well plates [Corning, 3610] in phenol-red-free media. At 8-, 24-, and 48-hours post-transfection, cell culture media was removed and cells were rinsed with DPBS. Cells were lysed and luciferase activity was measured using the Promega Dual Glo Luciferase Assay System [Promega, E2920]. Firefly luminescence/Renilla luminescence for each well was used as mRNA activity readout. In cases where Nluc and Fluc were used, the protocol was conducted similarly using the Nano-Glo Dual-Luciferase Reporter Assay System [Promega, N1610].

Substance | Protein expression (Firefly luciferase luminescence normalized to Renilla, then to m7G-rG), fold increase
construct 12: m7G cap; /5Phos//i2MOErA/rGrArGrArArUrArArArArA (SEQ ID NO: 13) ({m7G-cap}-eArGrArGrArArUrArArArArA) | 4.8 fold
construct 16: m7G cap; /5Phos//i2MOErA//i2MOErG//i2MOErA//i2MOErG//i2MOErA//i2MOErA/rUrArArArArA (SEQ ID NO: 17) ({P}-eAeGeAeGeAeArUrArArArArA; m7G cap on the 5'-phosphate) | 5.4 fold
construct 21: LNAm7G cap; /5Phos/rArGrArGrArArUrArArArArA (SEQ ID NO: 22) ({P}-rArGrArGrArArUrArArArArA; LNA-modified m7G cap on the 5'-phosphate) | 4.5 fold
construct 24: LNAm7G cap; /5Phos/mAmGmAmGmAmArUrArArArArA (SEQ ID NO: 25) ({P}-mAmGmAmGmAmArUrArArArArA; LNA-modified m7G cap on the 5'-phosphate) | 7.5 fold

Same assay, conditions: HeLa cells; Fluc reporter; result in words

Substance | Effect of cap/5′ UTR modification on protein production / translation
construct 1: m7G cap; /5Phos/rArGrArGrArArUrArArArArA (SEQ ID NO: 2) (AGAGAAUAAAAA; m7G cap, 5' phosphate; modified_base 1 OTHER; 5'-phosphate modified nucleotide) | A>G~C~U
construct 2: m7G cap; /5Phos/rUrGrArGrArArUrArArArArA (SEQ ID NO: 3) (UGAGAAUAAAAA; m7G cap, 5' phosphate; modified_base 1 OTHER; 5'-phosphate modified nucleotide) | A>G~C~U
construct 3: m7G cap; /5Phos/rCrGrArGrArArUrArArArArA (SEQ ID NO: 4) (CGAGAAUAAAAA; m7G cap, 5' phosphate; modified_base 1 OTHER; 5'-phosphate modified nucleotide) | A>G~C~U
construct 4: m7G cap; /5Phos/rIrGrArGrArArUrArArArArA (SEQ ID NO: 5) ({P}-r[I]rGrArGrArArUrArArArArA; m7G cap on the 5'-phosphate) | enhanced protein production
construct 5: m7G cap; /5Phos//iN6Me-rA/rGrArGrArArUrArArArArA (SEQ ID NO: 6) (AGAGAAUAAAAA; m7G cap; 5' phosphate; N6-methyl-A; modified_base 1 OTHER; 5'-phosphate modified N6-methyladenosine) | enhanced protein production
construct 8: m7G cap; /5Phos//i2FA/rGrArGrArArUrArArArArA (SEQ ID NO: 9) ({P}-fArGrArGrArArUrArArArArA; m7G cap on the 5'-phosphate) | hindered translation
construct 9: m7G cap; /5Phos//ibetaL-rA/rGrArGrArArUrArArArArA (SEQ ID NO: 10) (AGAGAAUAAAAA; m7G cap; 5' phosphate; beta-L-A; modified_base 1 OTHER; 5'-phosphate modified L-adenosine) | negligible changes
construct 10: m7G cap; /5Phos/ArGrArGrArArUrArArArArA (SEQ ID NO: 11) ({m7G-cap}-dArGrArGrArArUrArArArArA) | negligible changes
construct 18: Bn7G cap; /5Phos/rArGrArGrArArUrArArArArA (SEQ ID NO: 19) (AGAGAAUAAAAA; Bn7G cap, 5' phosphate; modified_base 1 OTHER; 5'-phosphate modified nucleotide) | did not outperform m7G
construct 19: ClBn7G cap; /5Phos/rArGrArGrArArUrArArArArA (SEQ ID NO: 20) (AGAGAAUAAAAA; ClBn7G cap, 5' phosphate; modified_base 1 OTHER; 5'-phosphate modified nucleotide) | did not outperform m7G
construct 20: ClBnOEt7G cap; /5Phos/rArGrArGrArArUrArArArArA (SEQ ID NO: 21) (AGAGAAUAAAAA; ClBnOEt7G cap, 5' phosphate; modified_base 1 OTHER; 5'-phosphate modified nucleotide) | did not outperform m7G

Same assay, conditions: topological screening: OU handle position, branching point, branch length, PS

Substance | Translation of branched / dual-capped Fluc mRNA (bioluminometry), result in words
construct 26: m7G-capped azide oligo /5Phos/rArGrArGrArUrArA/3AzideN/ clicked to uncapped rArArA/i5OCTdU/rArArArArArA (SEQ ID NO: 33) (AAATAAAAAA; m7G-capped azide oligo clicked to internal octyne-dU; modified_base 4 OTHER; 5-Octadiynyl modified uracil; misc_feature 1..3 RNA; misc_feature 4 DNA; misc_feature 5..10 RNA) | effectively induce mRNA translation

Molecular target: T1, eIF4E (Homo sapiens, UniProt P06730)
T1 construct: His; purchased Cayman Chemical Inc 25150
Test: eIF4E electrophoretic mobility shift assay (EMSA)
Assay type: binding
Conditions: AF647-labeled capped oligos, read-out: eIF4E dissociation constant (Kd)
Method: eIF4E affinity to fluorophore-labeled capped RNA oligonucleotides was quantified through electrophoretic mobility shift assay (EMSA) (FIGS. 14D and 9A-9E).
Capped oligonucleotides were labeled on the 3′ end using AF647 labeled cytidine-5′-phosphate-3′-(6-aminohexyl) phosphate [Jena Bioscience, NU-1706-AF647] and T4 RNA ligase ligated AF647-labeled cytidine onto the capped oligos using manufacturer's protocols. Oligos were then incubated in the binding buffer (1 mM DTT, 50 mM KCl, 10 mM Tris-HCl (pH 7.6), Novex Hi-Density TBE Sample Buffer [Invitrogen, LC6678]) with varying eIF4E-His [Cayman Chemical Inc, 25150] concentrations prepared by sequential dilutions from the stock solution. The oligos and […] were incubated at 4° C. for 30 mins and characterized by EMSA with Novex TBE Gels, 4-20% [Invitrogen, EC6225BOX] at 4° C. AF647 labeled oligos were imaged with BioRad ChemiDoc MP Imaging System [12003154] and band intensities were quantified using ImageJ. For Kd calculation, the proportions of bound were plotted against eIF4E concentration using GraphPad Prism (Specific binding with Hill slope).

T1 sequence (P06730 whole entry): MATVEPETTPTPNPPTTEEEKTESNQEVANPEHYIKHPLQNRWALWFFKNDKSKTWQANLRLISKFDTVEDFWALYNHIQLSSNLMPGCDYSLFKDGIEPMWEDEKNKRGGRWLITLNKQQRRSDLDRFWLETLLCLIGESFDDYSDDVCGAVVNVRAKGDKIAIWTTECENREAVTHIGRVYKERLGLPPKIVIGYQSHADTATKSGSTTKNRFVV

Substance | Kd
construct 24: LNAm7G cap; /5Phos/mAmGmAmGmAmArUrArArArArA (SEQ ID NO: 25) ({P}-mAmGmAmGmAmArUrArArArArA; LNA-modified m7G cap on the 5'-phosphate) | 1570 ± 116 nM
construct 28: m7G cap; OU handle only; /5Phos/rArGrArUrArArA/i5OCTdU/rArArArArArA (SEQ ID NO: 38) (AGATAAATAAAAAA; m7G cap; internal octyne-dU handle; modified_base 1 OTHER; 5'-phosphate modified nucleotide; modified_base 8 OTHER; 5-Octadiynyl modified uracil; misc_feature 1..7 RNA; misc_feature 8 DNA; misc_feature 9..14 RNA) | 2210 nM
construct 42: dual LNAm7G-capped; /5Phos/rArGrArGrArUrArA/3AzideN/ clicked to /5Phos/rArGrArUrArArA/i5OCTdU/rArArArArArA (SEQ ID NO: 120) (AGATAAATAAAAAA; dual LNA-m7G caps via click branch; modified_base 1 OTHER; 5'-phosphate modified nucleotide; modified_base 8 OTHER; 5-Octadiynyl modified uracil; misc_feature 1..7 RNA; misc_feature 8 DNA; misc_feature 9..14 RNA) | 1280 nM

Reference: patent publication US20260263638A1, “COMPOSITIONS AND METHODS TO IMPROVE RNA PROPERTIES USING BASE, PHOSPHODIESTER LINKAGE, SUGAR BACKBONE, AND CAP MODIFICATIONS” (The Broad Institute, Inc., priority 2023, published 2026)
